Laboratory results reported in patent publication US20260138961A1, “MODULATORS OF MITOCHONDRIAL DNA REPLICATION” (Pretzel Therapeutics, Inc., priority 2022, published 2026).

biological target: T1, human POLγ 3′-5′ exonuclease activity (Homo sapiens, UniProt P54098); experiment: Exonuclease inhibition assay with human POLγ (SYBR Green I fluorescence); format: biochemical; details: POLγA 1 nM, POLγB 1.3 nM, 5 nM exonuclease template, no dNTPs, 37° C. 2.5 hours
T1 sequence (P54098 1-1239): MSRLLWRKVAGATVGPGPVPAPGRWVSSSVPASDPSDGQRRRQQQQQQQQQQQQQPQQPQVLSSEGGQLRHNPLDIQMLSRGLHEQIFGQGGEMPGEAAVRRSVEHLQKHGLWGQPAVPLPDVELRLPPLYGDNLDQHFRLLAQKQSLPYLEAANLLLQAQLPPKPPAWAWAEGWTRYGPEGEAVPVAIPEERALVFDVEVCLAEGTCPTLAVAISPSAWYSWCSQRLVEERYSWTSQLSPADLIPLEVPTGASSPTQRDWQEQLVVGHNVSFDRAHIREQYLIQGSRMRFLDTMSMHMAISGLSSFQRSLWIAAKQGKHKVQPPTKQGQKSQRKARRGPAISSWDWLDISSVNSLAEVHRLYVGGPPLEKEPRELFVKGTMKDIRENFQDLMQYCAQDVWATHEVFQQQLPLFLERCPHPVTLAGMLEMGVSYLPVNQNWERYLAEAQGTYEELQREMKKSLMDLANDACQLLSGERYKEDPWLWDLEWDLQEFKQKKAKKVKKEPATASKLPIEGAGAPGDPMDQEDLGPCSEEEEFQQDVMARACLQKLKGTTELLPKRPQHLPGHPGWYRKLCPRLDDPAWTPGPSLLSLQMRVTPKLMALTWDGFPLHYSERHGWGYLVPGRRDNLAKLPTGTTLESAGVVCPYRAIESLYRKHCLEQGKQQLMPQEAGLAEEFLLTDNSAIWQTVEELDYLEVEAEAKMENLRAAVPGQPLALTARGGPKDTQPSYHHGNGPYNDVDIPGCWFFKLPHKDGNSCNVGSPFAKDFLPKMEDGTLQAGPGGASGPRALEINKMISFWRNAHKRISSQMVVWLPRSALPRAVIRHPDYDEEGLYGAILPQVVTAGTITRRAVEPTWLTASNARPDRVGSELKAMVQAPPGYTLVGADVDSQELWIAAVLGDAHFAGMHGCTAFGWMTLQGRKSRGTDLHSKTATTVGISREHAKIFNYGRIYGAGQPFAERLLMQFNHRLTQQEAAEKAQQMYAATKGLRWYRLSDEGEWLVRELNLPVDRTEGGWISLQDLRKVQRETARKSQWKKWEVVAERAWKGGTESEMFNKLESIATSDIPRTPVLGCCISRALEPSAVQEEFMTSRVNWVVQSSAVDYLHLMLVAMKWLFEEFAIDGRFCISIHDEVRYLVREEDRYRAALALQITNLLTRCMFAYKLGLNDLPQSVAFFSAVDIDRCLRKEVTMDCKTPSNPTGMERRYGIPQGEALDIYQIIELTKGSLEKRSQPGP
T1 sequence (Q9UHN1 1-485 partner): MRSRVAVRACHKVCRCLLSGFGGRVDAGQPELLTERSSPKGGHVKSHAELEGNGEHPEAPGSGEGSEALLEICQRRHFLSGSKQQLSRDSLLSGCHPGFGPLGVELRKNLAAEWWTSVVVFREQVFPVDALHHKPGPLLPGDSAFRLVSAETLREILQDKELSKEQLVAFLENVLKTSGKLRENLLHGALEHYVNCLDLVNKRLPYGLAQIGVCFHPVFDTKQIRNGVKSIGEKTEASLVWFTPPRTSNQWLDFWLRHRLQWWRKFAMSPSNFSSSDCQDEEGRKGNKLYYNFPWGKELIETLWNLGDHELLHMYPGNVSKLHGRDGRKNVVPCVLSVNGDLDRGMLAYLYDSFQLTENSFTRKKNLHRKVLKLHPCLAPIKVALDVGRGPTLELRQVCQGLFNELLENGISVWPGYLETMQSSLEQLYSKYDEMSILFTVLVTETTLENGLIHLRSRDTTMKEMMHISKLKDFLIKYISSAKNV
Method: Exonuclease inhibition assay with human POLγ.
The ability of small molecules to inhibit the 3′-5′ exonuclease activity of POLγ was analyzed in a quantitative fluorescence SYBR Green I assay with fluorescence intensity (FI) readout.
Human POLγ was incubated with a linear, partially double-stranded template containing an 85 base pair double-stranded DNA stretch and a 15 nucleotides long single-stranded 5′-tail (hereafter referred to as the “exonuclease template”). […] When bound to double-stranded DNA, SYBR Green I fluorescence increases by up to 100-fold. In the absence of deoxynucleotide triphosphates (dNTPs), the exonuclease activity of POLγ degrades the 85-mer strand, which leads to the formation of single-stranded DNA (ssDNA) and decreased fluorescent intensity. The assay was performed in a 384-well plate format.
The exonuclease template used was generated by hybridization of a 100 nucleotides long, single-stranded DNA molecule with an inverted dT at the 3′-end (5′-TTTTTTTTTATCCGGGCTCGTTATCTAAGCTGCTCTTGGTAGGCATTGACGTCCATACTGCAAATTCAGCTCTGTGCAGTTAGGCAGGAGTCTACAAGC invT-3′) to an 85 nucleotides long single-stranded DNA molecule (5′-AGCTTGTAGACTCCTGCCTAACTGCACAGAGCTGAATTTGCAGTATGGACGTCAATGCCTACCAGAGCAGCTTAGATAACGAGC-3′), using a Bio-Rad T100 Thermal Cycler. The inverted dT is characterized by a 3′-3′ linkage, which inhibits both degradation of the 3′-5′ exonuclease activity and extension by DNA polymerases.
POLγ is an heterotrimer of one POLγA subunit (harboring exonuclease and DNA polymerase activities) and two accessory POLγB subunits. Proteins used in the exonuclease assay were POLγA (NP_002684) and POLγB (NP_009146).
The protein mixture used in the assays contained POLγA (1 nM), POLγB (1.3 nM, concentration calculated as a dimer), 25 mM Tris-HCl (pH 8.0), 0.1 mg/mL bovine serum albumin, 1 mM Bond-Breaker TCEP solution (pH 7) [Thermo Fisher], 25 mM NaCl, and 0.02% Triton X-100.
The DNA template mixture used in the assay contained 5 nM of the exonuclease template, 25 mM Tris-HCl (pH 8.0), 10 mM MgCl2, 0.1 mg/mL bovine serum albumin, 1 mM Bond-Breaker TCEP solution [Thermo Fisher], and 0.02% Triton X-100.
Microplates with compounds (0.1 μL in each well) to be tested in the assay were prepared from 10 mM compound stocks in 100% DMSO, and equal amounts of DMSO without any compound were added to positive and negative control wells.
The protein mixture containing POLγ was dispensed (5 μL in each well) into compound plates and incubated at 37° C. for 15 minutes to allow compound binding to the POLγ complex. After incubation, 5 μL of the DNA template mixture was dispensed into each well. The plates were incubated at 37° C. for 2.5 hours.
During incubation, a combined stop buffer and detection reagent solution was prepared. The buffer contained 25 mM EDTA (pH 8.0), 0.02% Triton X-100, and SYBR Green I [Invitrogen] diluted 10,000× (for fluorescent readout). EDTA will stop the enzymatic reaction by chelating magnesium ions.
After the 2.5-hour incubation period, the SYBR Green I solution was added (10 μL) to the screening plates and the plates were incubated at room temperature in the dark for 20 minutes before the fluorescent signal was read between […] on a BMG Pherastar microtiter plate reader.

Cc1cc(S(=O)(=O)Nc2cccc(C(=O)N(C)C(C)CO)c2)c(C)cc1Cl (single isomer, unassigned) [Example 14, 3-((4-chloro-2,5-dimethylphenyl)sulfonamido)-N-(1-hydroxypropan-2-yl)-N-methylbenzamide] and Cc1ccc(C)c(S(=O)(=O)Nc2cccc(C(=O)N3CCCCC3C#N)c2)c1 (stereo not shown) [Example 2, N-(3-(2-cyanopiperidine-1-carbonyl)phenyl)-2,5-dimethylbenzenesulfonamide] are within 1.5-fold of each other in IC50: 3 µM for the first, 4 µM for the second.

First: Cc1ccc(C)c(S(=O)(=O)Nc2cccc(C(=O)N3CCCCC3)c2)c1 [Example 3, 2,5-dimethyl-N-(3-(piperidine-1-carbonyl)phenyl)benzene sulfonamide]
Second: Cc1ccc(C)c(S(=O)(=O)Nc2cccc(C(=O)NCC3CC3)c2)c1 [Example 4, N-(cyclopropylmethyl)-3-((2,5-dimethylphenyl)sulfonamido)benzamide]
The IC50 of the first is 4.8-fold lower: 10 µM for the first, 48 µM for the second. The first is the more potent here.

First: Cc1ccc(C)c(S(=O)(=O)Nc2cccc(C(=O)N3CCCC[C@H]3C)c2)c1 [Example 5, (R)-2,5-dimethyl-N-(3-(2-methylpiperidine-1-carbonyl)phenyl)benzenesulfonamide]
Second: Cc1ccc(C)c(S(=O)(=O)Nc2cccc(C(=O)N3CCCC[C@@H]3C)c2)c1 [Example 6, (S)-2,5-dimethyl-N-(3-(2-methylpiperidine-1-carbonyl)phenyl)benzenesulfonamide]
The IC50 of the first is 4-fold lower: 3 µM for the first, 12 µM for the second. The first is the more potent here.

First: Cc1ccc(C)c(S(=O)(=O)Nc2cccc(C(=O)N3CCOCC3C#N)c2)c1 (stereo not shown) [Example 7, N-(3-(3-cyanomorpholine-4-carbonyl)phenyl)-2,5-dimethylbenzenesulfonamide]
Second: Cc1ccc(C)c(S(=O)(=O)Nc2cccc(C(=O)N[C@@H](C)C3CC3)c2)c1 [Example 8, (S)-N-(1-cyclopropylethyl)-3-((2,5-dimethylphenyl)sulfonamido)benzamide]
The IC50 of the first is 9-fold lower: 1 µM for the first, 9 µM for the second. The first is the more potent here.

Going from Cc1cc(S(=O)(=O)Nc2cccc(C(=O)N3CCCC[C@H]3C)c2)c(C)cc1Cl [Example 9, (R)-4-chloro-2,5-dimethyl-N-(3-(2-methylpiperidine-1-carbonyl)phenyl)benzenesulfonamide] to Cc1cc(S(=O)(=O)Nc2cccc(C(=O)N3CCC[C@H]3C)c2)c(C)cc1Cl [Example 10, (R)-4-chloro-2,5-dimethyl-N-(3-(2-methylpyrrolidine-1-carbonyl)phenyl)benzenesulfonamide], the IC50 falls from 2 µM to 0.8 µM (2.5-fold). The second is the more potent here.

First: Cc1cc(S(=O)(=O)Nc2cccc(C(=O)NCc3ccccc3)c2)c(C)cc1Cl [Example 11, N-benzyl-3-((4-chloro-2,5-dimethylphenyl)sulfonamido)benzamide]
Second: Cc1cc(S(=O)(=O)Nc2cccc(C(=O)N(C)C)c2)c(C)cc1Cl [Example 12, 3-((4-chloro-2,5-dimethylphenyl)sulfonamido)-N,N-dimethylbenzamide]
The IC50 of the first is higher: > 100 µM for the first, 5 µM for the second.

Going from Cc1cc(S(=O)(=O)Nc2cc(F)cc(C(=O)N3CCC[C@H]3C)c2)c(C)cc1Cl [Example 13, (R)-4-chloro-N-(3-fluoro-5-(2-methylpyrrolidine-1-carbonyl)phenyl)-2,5-dimethylbenzenesulfonamide] to Cc1cc(S(=O)(=O)Nc2cccc(-c3nccs3)c2)c(C)cc1Cl [Example 16, 4-chloro-2,5-dimethyl-N-(3-(thiazol-2-yl)phenyl)benzenesulfonamide], the IC50 rises from 6 µM to 12 µM (2-fold). The first is the more potent here.

Compared with Cc1cc(S(=O)(=O)Nc2cccc(-c3ncco3)c2)c(C)cc1Cl [Example 17, 4-chloro-2,5-dimethyl-N-(3-(oxazol-2-yl)phenyl)benzenesulfonamide], Cc1cc(S(=O)(=O)Nc2cccc(-c3ccn(C)n3)c2)c(C)cc1Cl [Example 18, 4-chloro-2,5-dimethyl-N-(3-(1-methyl-1H-pyrazol-3-yl)phenyl)benzenesulfonamide] is lower in IC50: > 100 µM for the first, 81 µM for the second.

Cc1cc(S(=O)(=O)Nc2cccc(-c3nccn3C)c2)c(C)cc1Cl [Example 19, 4-chloro-2,5-dimethyl-N-(3-(1-methyl-1H-imidazol-2-yl)phenyl)benzenesulfonamide] and Cc1cc(S(=O)(=O)Nc2ccc3c(c2)CC(=O)N3)c(C)cc1Cl [Example 185, 4-chloro-2,5-dimethyl-N-(2-oxoindolin-5-yl)benzenesulfonamide] are within 1.5-fold of each other in IC50: 8 µM for the first, 6 µM for the second.

With “(R)-2,5-dimethyl-N-(3-(3-methylmorpholine-4-carbonyl)phenyl)benzenesulfonamide [Example 1]” the IC50 was 7 µM.
